This note sets out measurements from patent publication US8445476B2, “Carbacephem β-lactam antibiotics” (Achaogen, Inc., priority 2007, dated 2013).

Structures are written as SMILES. Values after ≈ are worked out from the molar mass of the structure shown.

Type in all cases: cell-based
In test [1] the test system is S. aureus ASAU1043 (MRSA, CIP, ERY, CLI, GEN resistant). Nature of the test: MIC assay, S. aureus ASAU1043. As to conditions: Staphylococcus aureus, read-out: MIC ASAU 1043. The procedure: (§1) The in vitro MIC for bacterial isolates may be obtained in the following manner: a test compound is incorporated into a series of two-fold dilutions in cation adjusted Mueller-Hinton broth (CAMHB). Different bacterial strains diluted to provide a uniform inoculum are added to the CAMHB containing test compounds. A well without test compound is included for each strain as a growth control. […] The procedures used in these experiments are generally those standardized by the Clinical and Laboratory Standards Institute (CLSI), as set forth in the CLSI publication entitled “M7-A7. Methods for dilution antimicrobial susceptibility tests for bacteria that grow aerobically; approved standard-seventh edition.” (2006), which is incorporated by reference as if fully set forth herein. The following exemplifies such a procedure although it is to be understood that modifications of the procedure may be implemented as required.
(§2) Two-fold dilutions of the test compounds are prepared in CAMHB at 2× the concentration range to be tested if the compounds are soluble in aqueous solution. Alternately, dimethylsulfoxide (DMSO) is used to prepare two-fold dilutions at 10× the concentration range to be tested. Reference drugs such as cefotaxime, vancomycin or imipenem are used as positive controls. A few isolated colonies are retrieved from a pure culture prepared on an agar plate and suspended in PBS until the turbidity of the suspension matches a 0.5 McFarland standard which is equal to approximately 10^8 sCFU/mL. This solution is further diluted in CAMHB to 10^6CFU/mL if compounds are diluted in CAMHB and 5×10^5 CFU/mL if compounds are diluted in DMSO. The CAMHB plates containing the compound dilutions are combined in equal volumes with the higher density inoculum, or 10 μL of the DMSO dilutions are added to the lower density inoculum. When S. aureus is the organism being tested and the compound is oxacillin, a beta-lactam or a carbacephem compound of the present invention, 2% NaCl is added to the growth media. The plates are then incubated for 16-20 hours at 35° C. The plates are then observed to determine which concentration of the test compound is the MIC.

For test [2], the system named is S. aureus ASAU1029 (CA-MRSA, USA300). Nature of the test: MIC assay, S. aureus ASAU1029. The note with it: Staphylococcus aureus, read-out: MIC ASAU 1029. The procedure: as §1, §2
In test [3] the test system is S. aureus ASAU001 (Susceptible Organism ATCC 29213). Nature of the test: MIC assay, S. aureus ASAU001. As to conditions: Staphylococcus aureus, ATCC29213, read-out: MIC ASAU 001. The procedure:
as §1, §2

For test [4], the system named is S. aureus ASAU1033 (MRSA, CIP, ERY, CLIN, TET, GEN resistant). Nature of the test: MIC assay, S. aureus ASAU1033. The note with it: Staphylococcus aureus, read-out: MIC ASAU 1033. How it is done: as §1, §2
Test [5] has as its system S. aureus ASAU1028 (CA-MRSA, USA400). Nature of the test: MIC assay, S. aureus ASAU1028. As to conditions: Staphylococcus aureus, read-out: MIC ASAU 1028. The procedure: as §1, §2
Test [6] relates to S. aureus ASAU002 (MRSA ATCC 33591). Nature of the test: MIC assay, S. aureus ASAU002. As to conditions: Staphylococcus aureus; S. aureus ASAU002, MRSA ATCC 33591; read-out: MIC ASAU 002. How it is done:
as §1, §2

`Nc1nc(/C(=N/O)C(=O)N[C@@H]2C(=O)N3C(C(=O)O)=C(Sc4ccncc4)CC[C@H]23)c(Cl)s1` [27/1, (6R,7S,Z)-7-(2-(2-amino-5-chlorothiazol-4-yl)-2-(hydroxyimino)acetamido)-8-oxo-3-(pyridin-4-ylthio)-1-aza-bicyclo[4.2.0]oct-2-ene-2-carboxylic Acid]: the minimum inhibitory concentration (MIC) in test [1] is 1 to 8 µg/mL (≈ 2.02 to 16.2 µM); in test [2], no more than 1 µg/mL; in test [3], no more than 1 µg/mL; in test [4] it was 1 to 8 µg/mL (≈ 2.02 to 16.2 µM); in test [5], no more than 1 µg/mL; in test [6] it was 1 to 8 µg/mL (≈ 2.02 to 16.2 µM).

As to `Cc1nc(SC2=C(C(=O)O)N3C(=O)[C@@H](NC(=O)/C(=N\O)c4nc(N)sc4Cl)[C@H]3CC2)sc1C` [33/1, (6R,7S,Z)-7-(2-(2-amino-5-chlorothiazol-4-yl)-2-(hydroxyimino)acetamido)-3-(4,5-dimethylthiazol-2-ylthio)-8-oxo-1-aza-bicyclo[4.2.0]oct-2-ene-2-carboxylic Acid], the MIC in test [1] is 1 to 8 µg/mL (≈ 1.89 to 15.1 µM); in test [2] it was no more than 1 µg/mL; in test [3], no more than 1 µg/mL; in test [4], 1 to 8 µg/mL (≈ 1.89 to 15.1 µM); in test [5], 1 to 8 µg/mL (≈ 1.89 to 15.1 µM); in test [6], 1 to 8 µg/mL (≈ 1.89 to 15.1 µM).

As to `Nc1nc(/C(=N/O)C(=O)N[C@@H]2C(=O)N3C(C(=O)O)=C(Sc4cscn4)CC[C@H]23)c(Cl)s1` [35/1, (6R,7S,Z)-7-(2-(2-amino-5-chlorothiazol-4-yl)-2-(hydroxyimino)acetamido)-8-oxo-3-(thiazol-4-ylthio)-1-aza-bicyclo[4.2.0]oct-2-ene-2-carboxylic Acid], the MIC in test [1] was greater than 8 µg/mL; in test [2], 1 to 8 µg/mL (≈ 2 to 16 µM); in test [3], no more than 1 µg/mL; in test [4], greater than 8 µg/mL; in test [5], 1 to 8 µg/mL (≈ 2 to 16 µM); in test [6], greater than 8 µg/mL.

Consider `CO/N=C(\C(=O)N[C@@H]1C(=O)N2C(C(=O)O)=C(Sc3cccnc3CSC3CCNC3)CC[C@H]12)c1nc(N)sc1Cl` (stereo partly drawn) [42/1, (6R,7S,Z)-7-(2-(2-amino-5-chlorothiazol-4-yl)-2-(methoxyimino)acetamido)-8-oxo-3-(2-((pyrrolidin-3-ylthio)methyl)pyridin-3-ylthio)-1-aza-bicyclo[4.2.0]oct-2-ene-2-carboxylic Acid], for which the MIC was greater than 8 µg/mL in test [1]; 1 to 8 µg/mL (≈ 1.6 to 12.8 µM) in test [2]; no more than 1 µg/mL in test [3]; 1 to 8 µg/mL (≈ 1.6 to 12.8 µM) in test [4]; 1 to 8 µg/mL (≈ 1.6 to 12.8 µM) in test [5]; 1 to 8 µg/mL (≈ 1.6 to 12.8 µM) in test [6].

For the molecule `Nc1nc(/C(=N/O)C(=O)N[C@@H]2C(=O)N3C(C(=O)O)=C(Sc4nnc(N)s4)CC[C@H]23)ns1` [45/1, (6R,7S,Z)-7-(2-(5-amino-1,2,4-thiadiazol-3-yl)-2-(hydroxyimino)acetamido)-3-(5-amino-1,3,4-thiadiazol-2-ylthio)-8-oxo-1-aza-bicyclo[4.2.0]oct-2-ene-2-carboxylic Acid], the minimum inhibitory concentration (MIC) is greater than 8 µg/mL in test [1]; no more than 1 µg/mL in test [2]; no more than 1 µg/mL in test [3]; greater than 8 µg/mL in test [4]; 1 to 8 µg/mL (≈ 2.07 to 16.5 µM) in test [5].

Turning to `Nc1nc(/C(=N/O)C(=O)N[C@@H]2C(=O)N3C(C(=O)O)=C(Sc4nncs4)CC[C@H]23)ns1` [46/1, (6R,7S,Z)-3-(1,3,4-thiadiazol-2-ylthio)-7-(2-(5-amino-1,2,4-thiadiazol-3-yl)-2-(hydroxyimino)acetamido)-8-oxo-1-aza-bicyclo[4.2.0]oct-2-ene-2-carboxylic Acid], the minimum inhibitory concentration (MIC) in test [1] is greater than 8 µg/mL; in test [2], no more than 1 µg/mL; in test [3] it was no more than 1 µg/mL; in test [4], greater than 8 µg/mL; in test [5], 1 to 8 µg/mL (≈ 2.13 to 17.1 µM).

Turning to `NCCSCc1ncccc1SC1=C(C(=O)O)N2C(=O)[C@@H](NC(=O)/C(=N\O)c3nsc(N)n3)[C@H]2CC1` [47/1, (6R,7S,Z)-7-(2-(5-amino-1,2,4-thiadiazol-3-yl)-2-(hydroxyimino)acetamido)-3-(2-((2-aminoethylthio)methyl)pyridin-3-ylthio)-8-oxo-1-aza-bicyclo[4.2.0]oct-2-ene-2-carboxylic Acid], the minimal inhibitory concentration (MIC) in test [1] was 1 to 8 µg/mL (≈ 1.82 to 14.5 µM); in test [2] it was no more than 1 µg/mL; in test [3] it was no more than 1 µg/mL; in test [4], 1 to 8 µg/mL (≈ 1.82 to 14.5 µM); in test [5], 1 to 8 µg/mL (≈ 1.82 to 14.5 µM).

As to `CO/N=C(\C(=O)N[C@@H]1C(=O)N2C(C(=O)O)=C(Sc3nnc(N)s3)CC[C@H]12)c1nsc(N)n1` [49/1, (6R,7S,Z)-7-(2-(5-amino-1,2,4-thiadiazol-3-yl)-2-(methoxyimino)acetamido)-3-(5-amino-1,3,4-thiadiazol-2-ylthio)-8-oxo-1-aza-bicyclo[4.2.0]oct-2-ene-2-carboxylic Acid], the MIC was greater than 8 µg/mL in test [1]; 1 to 8 µg/mL (≈ 2.01 to 16.1 µM) in test [2]; no more than 1 µg/mL in test [3]; greater than 8 µg/mL in test [4]; greater than 8 µg/mL in test [5].

As to `CO/N=C(\C(=O)N[C@@H]1C(=O)N2C(C(=O)O)=C(Sc3nncs3)CC[C@H]12)c1nsc(N)n1` [50/1, (6R,7S,Z)-3-(1,3,4-thiadiazol-2-ylthio)-7-(2-(5-amino-1,2,4-thiadiazol-3-yl)-2-(methoxyimino)acetamido)-8-oxo-1-aza-bicyclo[4.2.0]oct-2-ene-2-carboxylic Acid], the MIC is greater than 8 µg/mL in test [1]; 1 to 8 µg/mL (≈ 2.07 to 16.6 µM) in test [2]; no more than 1 µg/mL in test [3]; greater than 8 µg/mL in test [4]; 1 to 8 µg/mL (≈ 2.07 to 16.6 µM) in test [5].

Regarding `CO/N=C(\C(=O)N[C@@H]1C(=O)N2C(C(=O)O)=C(Sc3cccnc3CSCCN)CC[C@H]12)c1nsc(N)n1` [51/1, (6R,7S,Z)-7-(2-(5-amino-1,2,4-thiadiazol-3-yl)-2-(methoxyimino)acetamido)-3-(2-((2-aminoethylthio)methyl)pyridin-3-ylthio)-8-oxo-1-aza-bicyclo[4.2.0]oct-2-ene-2-carboxylic Acid], the minimal inhibitory concentration (MIC) in test [1] was greater than 8 µg/mL; in test [2] it was 1 to 8 µg/mL (≈ 1.77 to 14.2 µM); in test [3], no more than 1 µg/mL; in test [4] it was greater than 8 µg/mL; in test [5], 1 to 8 µg/mL (≈ 1.77 to 14.2 µM).

On to `CO/N=C(\C(=O)N[C@@H]1C(=O)N2C(C(=O)O)=C(Sc3ccncc3CSCCN)CC[C@H]12)c1nsc(N)n1` [52/1, (6R,7S,Z)-7-(2-(5-amino-1,2,4-thiadiazol-3-yl)-2-(methoxyimino)acetamido)-3-(3-((2-aminoethylthio)methyl)pyridin-4-ylthio)-8-oxo-1-aza-bicyclo[4.2.0]oct-2-ene-2-carboxylic acid], for which the minimum inhibitory concentration (MIC) is greater than 8 µg/mL in test [1]; 1 to 8 µg/mL (≈ 1.77 to 14.2 µM) in test [2]; no more than 1 µg/mL in test [3]; 1 to 8 µg/mL (≈ 1.77 to 14.2 µM) in test [4]; 1 to 8 µg/mL (≈ 1.77 to 14.2 µM) in test [5].

As to `CO/N=C(\C(=O)N[C@@H]1C(=O)N2C(C(=O)O)=C(Sc3ccncc3)CC[C@H]12)c1nsc(N)n1` [53/1, (6R,7S,Z)-7-(2-(5-amino-1,2,4-thiadiazol-3-yl)-2-(methoxyimino)acetamido)-8-oxo-3-(pyridin-4-ylthio)-1-aza-bicyclo[4.2.0]oct-2-ene-2-carboxylic Acid], the MIC in test [1] was greater than 8 µg/mL; in test [2], 1 to 8 µg/mL (≈ 2.1 to 16.8 µM); in test [3], no more than 1 µg/mL; in test [4] it was greater than 8 µg/mL; in test [5], 1 to 8 µg/mL (≈ 2.1 to 16.8 µM).

Regarding `Nc1nc(/C(=N\O)C(=O)NC2C(=O)N3C(C(=O)O)=C(/C=C4\CCN(C5CCNC5)C4=O)CS[C@H]23)ns1` (stereo partly shown) [Comparative Compound 1, reference compound], the MIC in test [1] is 1 to 8 µg/mL (≈ 1.87 to 15 µM); in test [2], no more than 1 µg/mL; in test [3], no more than 1 µg/mL; in test [4] it was 1 to 8 µg/mL (≈ 1.87 to 15 µM); in test [5] it was 1 to 8 µg/mL (≈ 1.87 to 15 µM); in test [6], 1 to 8 µg/mL (≈ 1.87 to 15 µM).
